Like-named read-outs stand apart in the source and are kept apart here.
Tests used:
Assay in all cases: NCI anticancer screen, SRB assay, 48 h
Type in all cases: cell-based, human
UACC-62 (melanoma) = test system: UACC-62 (melanoma)
Description: (§1) Some of biological activity studies were carried out at the National Cancer Institute (NCI), Maryland, USA.
(§2) The compounds were evaluated for anticancer activity against fifty three human cancer cells derived from nine cancer types (leukemia cell line, non-small-cell lung cell line, colon cell line, CNS cell line, melanoma cell line, ovarian cell line, prostate cell line, and breast cancer cell line) as shown in Table 1. For each compound, dose response curves for each cell line were measured at a minimum of five concentrations at 10 fold dilutions. A protocol of 48 h continuous drug exposure was used and a sulforhodamine B (SRB) protein assay was used to estimate cell viability or growth.

ACHN (renal) = test system: ACHN (renal)
Description: as §1, §2

M14 (melanoma) = test system: M14 (melanoma)
Description: as §1, §2

[1] = test system: NCI-H522 (non-small cell lung)
Description: as §1, §2

MALME-3M (melanoma) = settings: MALME-3M
Description: as §1, §2

COLO 205 (colon) = test system: COLO 205 (colon)
Description: as §1, §2

SN12C (renal) = test system: SN12C (renal)
Description: as §1, §2

MCF7 (breast) = test system: MCF7 (breast)
Description: as §1, §2

TK-10 (renal) = test system: TK-10 (renal)
Description: as §1, §2

SF-539 (CNS) = test system: SF-539 (CNS)
Description: as §1, §2

OVCAR-5 (ovarian) = test system: OVCAR-5 (ovarian)
Description: as §1, §2

U251 (CNS) = test system: U251 (CNS)
Description: as §1, §2

CAKI-1 (renal) = test system: CAKI-1 (renal)
Description: as §1, §2

UACC-257 (melanoma) = test system: UACC-257 (melanoma)
Description: as §1, §2

OVCAR-8 (ovarian) = test system: OVCAR-8 (ovarian)
Description: as §1, §2

[2] = test system: EKVX (non-small cell lung)
Description: as §1, §2

SW-620 (colon) = test system: SW-620 (colon)
Description: as §1, §2

[3] = test system: NCI-H226 (non-small cell lung)
Description: as §1, §2

SNB-19 (CNS) = test system: SNB-19 (CNS)
Description: as §1, §2

SK-OV-3 (ovarian) = test system: SK-OV-3 (ovarian)
Description: as §1, §2

786-0 (renal) = test system: 786-0 (renal)
Description: as §1, §2

SK-MEL-5 (melanoma) = test system: SK-MEL-5 (melanoma)
Description: as §1, §2

SF-295 (CNS) = test system: SF-295 (CNS)
Description: as §1, §2

[4] = test system: A549/ATCC (non-small cell lung)
Description: as §1, §2

BT-549 (breast) = test system: BT-549 (breast)
Description: as §1, §2

KM12 (colon) = test system: KM12 (colon)
Description: as §1, §2

SF-268 (CNS) = test system: SF-268 (CNS)
Description: as §1, §2

LOX IMVI (melanoma) = test system: LOX IMVI (melanoma)
Description: as §1, §2

RXF 393 (renal) = test system: RXF 393 (renal)
Description: as §1, §2

HT29 (colon) = test system: HT29 (colon)
Description: as §1, §2

NCI/ADR-RES (ovarian) = test system: NCI/ADR-RES (ovarian)
Description: as §1, §2

PC-3 (prostate) = settings: for GI50: read-out: GI50
Description: as §1, §2

SK-MEL-2 (melanoma) = test system: SK-MEL-2 (melanoma)
Description: as §1, §2

[5] = test system: RPMI-8226 (leukemia cell line)
Description: as §1, §2

OVCAR-3 (ovarian) = test system: OVCAR-3 (ovarian)
Description: as §1, §2

[6] = test system: NCI-H322M (non-small cell lung)
Description: as §1, §2

[7] = 48 h exposure, SRB, read-out: GI50

COc1ccc(-c2cn(-c3cccc(C(=O)/C=C/c4cc(OC)c(OC)c(OC)c4)c3)c(=O)[nH]2)cc1 [5b, 4-(4-methoxyphenyl)-1-3-[(E)-3-(3,4,5-trimethoxyphenyl)-2-propenoyl]phenyl-2,3-dihydro-1H-2-imidazolone]
pGI50 (-log of molar concentration causing 50% inhibition of net cell growth) (UACC-62 (melanoma)): 5.69
GI50 (UACC-62 (melanoma); [7]): 2060 nM
pGI50 (-log of molar concentration causing 50% inhibition of net cell growth) (ACHN (renal)): 5.74
GI50 (ACHN (renal); [7]): 1820 nM
pGI50 (-log of molar concentration causing 50% inhibition of net cell growth) (M14 (melanoma)): 5.73
GI50 (M14 (melanoma); [7]): 1850 nM
pGI50 (-log of molar concentration causing 50% inhibition of net cell growth) [1]: 5.73
GI50 [1, 7]: 1850 nM
pGI50 (-log of molar concentration causing 50% inhibition of net cell growth) (MALME-3M (melanoma)): 5.75
GI50 (MALME-3M (melanoma); [7]): 1790 nM
pGI50 (-log of molar concentration causing 50% inhibition of net cell growth) (COLO 205 (colon); COLO205): 5.74
GI50 (COLO 205 (colon); COLO 205, 48 h exposure, SRB, read-out: GI50): 1840 nM
pGI50 (-log of molar concentration causing 50% inhibition of net cell growth) (SN12C (renal); SN 12C): 5.46
GI50 (SN12C (renal); SN12C, 48 h exposure, SRB, read-out: GI50): 3500 nM
pGI50 (-log of molar concentration causing 50% inhibition of net cell growth) (MCF7 (breast)): 6.36
GI50 (MCF7 (breast); [7]): 440 nM
pGI50 (-log of molar concentration causing 50% inhibition of net cell growth) (TK-10 (renal)): 5.52
GI50 (TK-10 (renal); [7]): 3040 nM
pGI50 (-log of molar concentration causing 50% inhibition of net cell growth) (SF-539 (CNS)): 5.70
GI50 (SF-539 (CNS); [7]): 2000 nM
pGI50 (-log of molar concentration causing 50% inhibition of net cell growth) (OVCAR-5 (ovarian)): 5.58
GI50 (OVCAR-5 (ovarian); [7]): 2640 nM
pGI50 (-log of molar concentration causing 50% inhibition of net cell growth) (U251 (CNS)): 6.06
GI50 (U251 (CNS); [7]): 880 nM
pGI50 (-log of molar concentration causing 50% inhibition of net cell growth) (CAKI-1 (renal)): 5.52
GI50 (CAKI-1 (renal); [7]): 3050 nM
pGI50 (-log of molar concentration causing 50% inhibition of net cell growth) (UACC-257 (melanoma)): 5.52
GI50 (UACC-257 (melanoma); [7]): 3040 nM
pGI50 (-log of molar concentration causing 50% inhibition of net cell growth) (OVCAR-8 (ovarian)): 5.60
GI50 (OVCAR-8 (ovarian); [7]): 2530 nM
pGI50 (-log of molar concentration causing 50% inhibition of net cell growth) [2]: 5.38
GI50 [2, 7]: 4200 nM
pGI50 (-log of molar concentration causing 50% inhibition of net cell growth) (SW-620 (colon)): 6.35
GI50 (SW-620 (colon); [7]): 450 nM
pGI50 (-log of molar concentration causing 50% inhibition of net cell growth) [3]: 4.45
GI50 [3, 7]: 35200 nM
pGI50 (-log of molar concentration causing 50% inhibition of net cell growth) (SNB-19 (CNS)): 5.36
GI50 (SNB-19 (CNS); [7]): 4380 nM
pGI50 (-log of molar concentration causing 50% inhibition of net cell growth) (SK-OV-3 (ovarian)): 5.34
GI50 (SK-OV-3 (ovarian); [7]): 4600 nM
pGI50 (-log of molar concentration causing 50% inhibition of net cell growth) (786-0 (renal)): 5.79
GI50 (786-0 (renal); [7]): 1610 nM
pGI50 (-log of molar concentration causing 50% inhibition of net cell growth) (SK-MEL-5 (melanoma)): 5.69
GI50 (SK-MEL-5 (melanoma); [7]): 2030 nM
pGI50 (-log of molar concentration causing 50% inhibition of net cell growth) (SF-295 (CNS)): 5.31
GI50 (SF-295 (CNS); [7]): 4950 nM
pGI50 (-log of molar concentration causing 50% inhibition of net cell growth) [4]: 4.93
GI50 [4, 7]: 11800 nM
pGI50 (-log of molar concentration causing 50% inhibition of net cell growth) (BT-549 (breast)): 5.59
GI50 (BT-549 (breast); [7]): 2590 nM
pGI50 (-log of molar concentration causing 50% inhibition of net cell growth) (KM12 (colon)): 5.85
GI50 (KM12 (colon); [7]): 1420 nM
pGI50 (-log of molar concentration causing 50% inhibition of net cell growth) (SF-268 (CNS)): 5.49
GI50 (SF-268 (CNS); [7]): 3210 nM
pGI50 (-log of molar concentration causing 50% inhibition of net cell growth) (LOX IMVI (melanoma)): 6.14
GI50 (LOX IMVI (melanoma); [7]): 720 nM
GI50 (RXF 393 (renal); RXF 393, 48 h exposure, SRB, read-out: GI50): 1920 nM
pGI50 (-log of molar concentration causing 50% inhibition of net cell growth) (RXF 393 (renal); RXF-393): 5.72
pGI50 (-log of molar concentration causing 50% inhibition of net cell growth) (HT29 (colon)): 5.89
GI50 (HT29 (colon); [7]): 1280 nM
pGI50 (-log of molar concentration causing 50% inhibition of net cell growth) (NCI/ADR-RES (ovarian); NCI/ADR-RES): 5.77
GI50 (NCI/ADR-RES (ovarian); NCl/ADR-RES, 48 h exposure, SRB, read-out: GI50): 1700 nM
pGI50 (-log of molar concentration causing 50% inhibition of net cell growth) (PC-3 (prostate); PC-3): 5.21
GI50 (PC-3 (prostate); PC-3, 48 h exposure, SRB): 6220 nM
GI50 (PC-3 (prostate); one prostate cancer cell line (PC-3), exposure at least 48 hrs): 6220 nM
pGI50 (-log of molar concentration causing 50% inhibition of net cell growth) (SK-MEL-2 (melanoma)): 5.58
GI50 (SK-MEL-2 (melanoma); [7]): 2630 nM
pGI50 (-log of molar concentration causing 50% inhibition of net cell growth) [5]: 6.04
GI50 [5, 7]: 920 nM
pGI50 (-log of molar concentration causing 50% inhibition of net cell growth) (OVCAR-3 (ovarian)): 5.75
GI50 (OVCAR-3 (ovarian); [7]): 1780 nM
pGI50 (-log of molar concentration causing 50% inhibition of net cell growth) [6]: 5.58
GI50 [6, 7]: 2660 nM

Source: patent US8889874B2, “Imidazolone-chalcone derivatives as potential anticancer agent and process for the preparation thereof” (Council of Scientific and Industrial Research, priority 2010, dated 2014)
